Reference: patent publication US20100233256A1, “SYNERGISTIC COMBINATIONS FOR TREATING HYPERTENSION” (LYCORED LTD., priority 2007, published 2010)

System: adhesion of neutrophils to EA.hy 926 endothelial cell line
Assay: Adhesion of neutrophils to TNFα-induced EA.hy 926 endothelial cells
Type: cell-based
Settings: for reduction of adhesion of neutrophils to cytokine-induced endothelial cell line: EAhy. 926; for inhibition of the adhesion: lower concentration, percent of the adhesion induced by TNFα
Procedure: The applicants of the present invention have shown that lycopene, lutein and 7% Lye-O-Mato® can improve endothelial function by reducing, to similar extent (60±15%), the adhesion of neutrophils to cytokine-induced endothelial cell line (EAhy. 926). […] Lycopene 610 and oleoresin were diluted by 1:12 fold and lutein by 1:8 fold which result in ˜0.2 μM lycopene 610, ˜0.125 μM oleoresin and ˜0.6 μM lutein. The adhesion of neutrophils to EA.hy 926 cells were measured after the endothelial cells were induced by TNFα which result in increase of 60±10% in the adhesion from their combination, was calculated as percent of the adhesion induced by TNFα

Structure (SMILES): CC1=C[C@H](O)CC(C)(C)[C@H]1/C=C/C(C)=C/C=C/C(C)=C/C=C/C=C(C)/C=C/C=C(C)/C=C/C1=C(C)C[C@@H](O)CC1(C)C [lutein]
- reduction of adhesion of neutrophils to cytokine-induced endothelial cell line (high concentration: lutein 4-5 μM): 60±15%
- inhibition of the adhesion (~0.6 μM lutein, FIG. 1A): 56±15%

Structure (SMILES): CC(C)=CCC/C(C)=C/C=C/C(C)=C/C=C/C(C)=C/C=C/C=C(C)/C=C/C=C(C)/C=C/C=C(\C)CCC=C(C)C [lycopene]
- reduction of adhesion of neutrophils to cytokine-induced endothelial cell line (high concentration: lycopene 610 2-3 μM): 60±15%
- inhibition of the adhesion (~0.2 μM lycopene 610, FIG. 1B): 40±22%
